Test results from US9113629B2, “4-amino-6-(4-substituted-phenyl)-picolinates and 6-amino-2-(4-substituted-phenyl)-pyrimidine-4-carboxylates and their use as herbicides” (DOW AGROSCIENCES LLC, priority 2013, dated 2015).
Like-named read-outs stand apart in the source and are kept apart here.

Assays:
[1] = system: test plant species in Direct Seeded Rice; test: Postemergence herbicidal activity in direct seeded rice (Table 13); assay type: in vivo; conditions: for GR50 BRAPP / GR80 BRAPP / GR50 CYPSS / GR80 CYPSS / GR50 ECHSS / GR80 ECHSS / GR50 LEFSS / GR80 LEFSS / GR20 ORYSS / GR50 SCPJU / GR80 SCPJU / GR50 SEBEX / GR80 SEBEX: probit analysis; for GR20 ORYSS: ORYSS: Oryza sativa (crop); for pest or weed control at 35 g/ha / pest or weed control at 70 g/ha: post-emergence, 504 h; for pest or weed control at 35 g/ha: 35 g ai/ha; for pest or weed control at 70 g/ha: 70 g ai/ha
Outline: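 Greenhouse-grown plants at the second or third true leaf stage were sprayed postemergence at 187 L/ha with compound in acetone/DMSO (final 16.2%/0.5%) plus aqueous Agri-dex crop oil concentrate; controls got solvent blank. Injury was rated visually 0–100% after 20-22 days, and GR20, GR50, GR80 and GR90 derived by probit analysis.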

[2] = system: APESV: bentgrass (Apera spica-venti); test: Post-emergent Test III, herbicidal activity in wheat and barley; assay type: in vivo; conditions: for pest or weed control at 35 g/ha / pest or weed control at 70 g/ha / pest or weed control at 140 g/ha: Apera spica-venti, post-emergence, 504 h, read-out: Visual Growth Reduction (%) 21 Days After Application APESV; for pest or weed control at 35 g/ha: 35 g ai/ha; for pest or weed control at 70 g/ha: 70 g ai/ha; for pest or weed control at 140 g/ha: 140 g ai/ha; for GR50 APESV / GR80 APESV: probit analysis
Outline: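 Plants at the second to third true-leaf stage, grown in a greenhouse at about 18/17 °C with a 14 h photoperiod, were sprayed post-emergence at 187 L/ha with the high rate and ½× to 1/16× serial dilutions in an acetone/DMSO/crop-oil/surfactant carrier. Injury was rated visually at 21 d on a 0–100% scale, and GR20–GR90 were derived by probit analysis.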

[3] = BRAPP: broadleaf signalgrass, Brachiaria platyphylla
[4] = CYPSS: sedge (Cyperus difformis, esculentus, iria)
[5] = ECHSS: barnyardgrass (Echinochloa crus-galli), junglerice (Echinochloa colonum)
[6] = LEFSS: sprangletop (Leptochloa chinensis, Leptochloa dubia)
[7] = SCPJU: Japanese bulrush, Scirpus juncoides
[8] = SEBEX: hemp sesbania, Sesbania exaltata
[9] = BRAPP: broadleaf signalgrass, Brachiaria platyphylla, read-out: Visual Growth Reduction (%) 21 Days After Application BRAPP
[10] = CYPSS: sedge (Cyperus difformis, esculentus, iria), read-out: Visual Growth Reduction (%) 21 Days After Application CYPSS
[11] = ECHSS: barnyardgrass (Echinochloa crus-galli), junglerice (Echinochloa colonum), read-out: Visual Growth Reduction (%) 21 Days After Application ECHSS
[12] = LEFSS: sprangletop (Leptochloa chinensis, Leptochloa dubia), read-out: Visual Growth Reduction (%) 21 Days After Application LEFSS
[13] = ORYSS: Oryza sativa, read-out: Visual Growth Reduction (%) 21 Days After Application ORYSS
[14] = SCPJU: Japanese bulrush, Scirpus juncoides, read-out: Visual Growth Reduction (%) 21 Days After Application SCPJU
[15] = SEBEX: hemp sesbania, Sesbania exaltata, read-out: Visual Growth Reduction (%) 21 Days After Application SEBEX
[16] = dose for growth reduction of 50 percent, 21 days after application
[17] = dose for growth reduction of 80 percent, 21 days after application
[18] = Table 9, dose for 50 percent growth reduction, 21 d
[19] = Table 9, dose for 80 percent growth reduction, 21 d

Row | SMILES | GR50 BRAPP [1, 3] [g ai/ha] | GR80 BRAPP [1, 3] [g ai/ha] | GR50 CYPSS [1, 4] [g ai/ha] | GR80 CYPSS [1, 4] [g ai/ha] | GR50 ECHSS [1, 5] [g ai/ha] | GR80 ECHSS [1, 5] [g ai/ha] | GR50 LEFSS [1, 6] [g ai/ha] | GR80 LEFSS [1, 6] [g ai/ha] | GR20 ORYSS [1] [g ai/ha] | GR50 SEBEX [1, 8] [g ai/ha] | GR80 SEBEX [1, 8] [g ai/ha] | pest or weed control at 35 g/ha [1, 9] [%] | pest or weed control at 70 g/ha [1, 9] [%] | pest or weed control at 35 g/ha [1, 10] [%] | pest or weed control at 70 g/ha [1, 10] [%] | pest or weed control at 35 g/ha [1, 11] [%] | pest or weed control at 70 g/ha [1, 11] [%] | pest or weed control at 35 g/ha [1, 12] [%] | pest or weed control at 70 g/ha [1, 12] [%] | pest or weed control at 35 g/ha [1, 13] [%] | further results
1 | COc1c(N)nc(-c2ccc(Br)c(F)c2F)nc1C(=O)O [Compound 8] | 4 | 9 | 1 | 1 | 2 | 6 | >70 | >70 | 2 | 3 | 5 | 95 to 100 | 95 to 100 | 95 to 100 | 95 to 100 | 95 to 100 | 95 to 100 | 0 to 29 | 30 to 44 | 75 to 84 | GR50 SCPJU [1, 7]: 1 g ai/ha; GR80 SCPJU [1, 7]: 1 g ai/ha; pest or weed control at 70 g/ha [1, 13]: 85 to 94%; pest or weed control at 35 g/ha [1, 14]: 95 to 100%; pest or weed control at 70 g/ha [1, 14]: 95 to 100%; pest or weed control at 35 g/ha [1, 15]: 95 to 100%; pest or weed control at 70 g/ha [1, 15]: 95 to 100%
2 | COC(=O)c1nc(-c2ccc(F)cc2)c(F)c(N)c1Cl [Compound 204] |  |  |  |  |  |  |  |  |  |  |  |  |  |  |  |  |  |  |  |  | pest or weed control at 35 g/ha [2]: 0 to 29%; pest or weed control at 70 g/ha [2]: 30 to 44%; pest or weed control at 140 g/ha [2]: 60 to 74%; GR50 APESV [2, 16]: 106 g ai/ha; GR80 APESV [2, 17]: >140 g ai/ha
3 | COc1c(N)nc(-c2ccc(Br)cc2F)nc1C(=O)O [Compound 46] |  |  |  |  |  |  |  |  |  |  |  |  |  |  |  |  |  |  |  |  | pest or weed control at 35 g/ha ([2]; Table 9, post-emergent, 21 d): 0 to 29%; pest or weed control at 70 g/ha ([2]; Table 9, post-emergent, 21 d): 0 to 29%; pest or weed control at 140 g/ha ([2]; Table 9, post-emergent, 21 d): 45 to 59%; GR50 APESV [2, 18]: >140 g ai/ha; GR80 APESV [2, 19]: >140 g ai/ha
4 | Nc1cc(-c2ccc(Br)c(F)c2F)nc(C(=O)O)c1Cl [Compound 91] |  |  |  |  |  |  |  |  |  |  |  |  |  |  |  |  |  |  |  |  | pest or weed control at 35 g/ha [2]: 45 to 59%; pest or weed control at 70 g/ha [2]: 45 to 59%; pest or weed control at 140 g/ha [2]: 60 to 74%; GR50 APESV [2, 16]: 67 g ai/ha; GR80 APESV [2, 17]: >140 g ai/ha
5 | Nc1c(F)c(-c2ccc(C(F)(F)F)c(F)c2)nc(C(=O)O)c1Cl [Compound 134] | 3 | 12 | 6 | 13 | 1 | 1 | 6 | 15 | 5 | 1 | 1 | 95 to 100 | 95 to 100 | 95 to 100 | 95 to 100 | 95 to 100 | 95 to 100 | 95 to 100 | 95 to 100 | 60 to 74 | GR50 SCPJU [1, 7]: 1 g ai/ha; GR80 SCPJU [1, 7]: 1 g ai/ha; pest or weed control at 70 g/ha [1, 13]: 85 to 94%; pest or weed control at 70 g/ha [1, 14]: 95 to 100%; pest or weed control at 35 g/ha [1, 15]: 95 to 100%; pest or weed control at 70 g/ha [1, 15]: 95 to 100%
6 | COC(=O)c1nc(-c2ccc(Br)c(F)c2F)nc(N)c1OC [Compound 122, methyl 6-amino-2-(4-bromo-2,3-difluorophenyl)-5-methoxypyrimidine-4-carboxylate] | 5 | 42 | 1 | 1 | 6 | 47 | >70 | >70 | 70 | 1 | 1 | 75 to 84 | 85 to 94 | 95 to 100 | 95 to 100 | 75 to 84 | 85 to 94 | 0 to 29 | 0 to 29 | 0 to 29 | GR50 SCPJU [1, 7]: 1 g ai/ha; GR80 SCPJU [1, 7]: 1 g ai/ha; pest or weed control at 70 g/ha [1, 13]: 0 to 29%; pest or weed control at 35 g/ha [1, 14]: 95 to 100%; pest or weed control at 70 g/ha [1, 14]: 95 to 100%; pest or weed control at 35 g/ha [1, 15]: 95 to 100%; pest or weed control at 70 g/ha [1, 15]: 95 to 100%
7 | C#Cc1ccc(-c2nc(N)c(OC)c(C(=O)O)n2)cc1 [Compound 28] |  |  |  |  |  |  |  |  |  |  |  |  |  |  |  |  |  |  |  |  | pest or weed control at 35 g/ha ([2]; Table 9, post-emergent, 21 d): 0 to 29%; pest or weed control at 70 g/ha ([2]; Table 9, post-emergent, 21 d): 0 to 29%; GR50 APESV [2, 18]: >140 g ai/ha; GR80 APESV [2, 19]: >140 g ai/ha
8 | COC(=O)c1nc(-c2ccc(C(F)(F)F)c(F)c2)c(F)c(N)c1Cl [Compound 165] | 12 | 27 | 19 | 67 | 10 | 24 | 24 | 56 | 44 | 1 | 1 | 85 to 94 | 95 to 100 | 75 to 84 | 75 to 84 | 85 to 94 | 95 to 100 | 0 to 29 | 95 to 100 | 0 to 29 | pest or weed control at 70 g/ha [1, 13]: 30 to 44%; pest or weed control at 35 g/ha [1, 15]: 95 to 100%; pest or weed control at 70 g/ha [1, 15]: 95 to 100%
